PubChem BioAssay (NCI)
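Five compound concentrations were applied to cells in 96-well plates for 48 hours; endpoints were derived by simple linear interpolation of the resulting dose-response curve. At the TGI there is no net growth.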

What was measured:
Assay in all cases: growth of human tumour cells (NCI), 48 h
786-0 renal = test system: 786-0 renal
A498 renal = test system: A498 renal
A549 NSCLC = test system: A549 NSCLC
ACHN renal = test system: ACHN renal
CAKI-1 renal = test system: CAKI-1 renal
CCRF-CEM leukemia = test system: CCRF-CEM leukemia
COLO 205 colon = test system: COLO 205 colon
DLD-1 colon = test system: DLD-1 colon
DMS 114 small cell lung = test system: DMS 114 small cell lung
DMS 273 small cell lung = test system: DMS 273 small cell lung
EKVX NSCLC = test system: EKVX NSCLC
HCC-2998 colon = test system: HCC-2998 colon
HCT-116 colon = test system: HCT-116 colon
HCT-15 colon = test system: HCT-15 colon
HL-60(TB) leukemia = test system: HL-60(TB) leukemia
HOP-18 NSCLC = test system: HOP-18 NSCLC
HOP-62 NSCLC = test system: HOP-62 NSCLC
HOP-92 NSCLC = test system: HOP-92 NSCLC
HT29 colon = test system: HT29 colon
IGROV1 ovarian = test system: IGROV1 ovarian
K-562 leukemia = test system: K-562 leukemia
KM12 colon = test system: KM12 colon
KM20L2 colon = test system: KM20L2 colon
LOX IMVI melanoma = test system: LOX IMVI melanoma
LXFL 529 NSCLC = test system: LXFL 529 NSCLC
M14 melanoma = test system: M14 melanoma
M19-MEL melanoma = test system: M19-MEL melanoma
MALME-3M melanoma = test system: MALME-3M melanoma
MOLT-4 leukemia = test system: MOLT-4 leukemia
NCI-H226 lung = test system: NCI-H226 lung
NCI-H23 lung = test system: NCI-H23 lung
NCI-H460 lung = test system: NCI-H460 lung
NCI-H522 lung = test system: NCI-H522 lung
OVCAR-3 ovarian = test system: OVCAR-3 ovarian
OVCAR-4 ovarian = test system: OVCAR-4 ovarian
OVCAR-5 ovarian = test system: OVCAR-5 ovarian
OVCAR-8 ovarian = test system: OVCAR-8 ovarian
RPMI-8226 leukemia = test system: RPMI-8226 leukemia
RXF 393 renal = test system: RXF 393 renal
RXF-631 renal = test system: RXF-631 renal
SF-268 CNS = test system: SF-268 CNS
SF-295 CNS = test system: SF-295 CNS
SF-539 CNS = test system: SF-539 CNS
SK-MEL-2 melanoma = test system: SK-MEL-2 melanoma
SK-MEL-28 melanoma = test system: SK-MEL-28 melanoma
SK-MEL-5 melanoma = test system: SK-MEL-5 melanoma
SK-OV-3 ovarian = test system: SK-OV-3 ovarian
SN12C renal = test system: SN12C renal
SNB-19 CNS = test system: SNB-19 CNS
SNB-75 CNS = test system: SNB-75 CNS
SNB-78 CNS = test system: SNB-78 CNS
SW-620 colon = test system: SW-620 colon
TK-10 renal = test system: TK-10 renal
U251 CNS = test system: U251 CNS
UACC-257 melanoma = test system: UACC-257 melanoma
UACC-62 melanoma = test system: UACC-62 melanoma
UO-31 renal = test system: UO-31 renal
XF 498 CNS = test system: XF 498 CNS
SR leukemia = test system: SR leukemia

Q: What does the source list for `C[n+]1[se]c2ccccc2c1Cl`?
A: TGI (786-0 renal): > 59.2 µM; TGI (A498 renal): > 100 µM; TGI (A549 NSCLC): > 94 µM; TGI (ACHN renal): > 70.7 µM; TGI (CAKI-1 renal): > 56.2 µM; TGI (CCRF-CEM leukemia): 21.5 µM; TGI (COLO 205 colon): > 59.8 µM; TGI (DLD-1 colon): > 59.7 µM; TGI (DMS 114 small cell lung): > 70 µM; TGI (DMS 273 small cell lung): 41.5 µM; TGI (EKVX NSCLC): 52.1 µM; TGI (HCC-2998 colon): > 81.9 µM; TGI (HCT-116 colon): 31 µM; TGI (HCT-15 colon): > 67.3 µM; TGI (HL-60(TB) leukemia): 19.6 µM; TGI (HOP-18 NSCLC): 52.9 µM; TGI (HOP-62 NSCLC): > 58.8 µM; TGI (HOP-92 NSCLC): 20.2 µM; TGI (HT29 colon): > 76.3 µM; TGI (IGROV1 ovarian): > 77.5 µM; TGI (K-562 leukemia): > 70.7 µM; TGI (KM12 colon): > 56.7 µM; TGI (KM20L2 colon): > 75.7 µM; TGI (LOX IMVI melanoma): 39.7 µM; TGI (LXFL 529 NSCLC): > 100 µM; TGI (M14 melanoma): 27.8 µM; TGI (M19-MEL melanoma): 27.3 µM; TGI (MALME-3M melanoma): > 56.9 µM; TGI (MOLT-4 leukemia): > 63.6 µM; TGI (NCI-H226 lung): > 71.1 µM; TGI (NCI-H23 lung): 45.8 µM; TGI (NCI-H460 lung): > 100 µM; TGI (NCI-H522 lung): 42.7 µM; TGI (OVCAR-3 ovarian): > 71.9 µM; TGI (OVCAR-4 ovarian): > 60 µM; TGI (OVCAR-5 ovarian): > 79.9 µM; TGI (OVCAR-8 ovarian): > 84.7 µM; TGI (RPMI-8226 leukemia): > 67 µM; TGI (RXF 393 renal): 50.4 µM; TGI (RXF-631 renal): > 67.2 µM; TGI (SF-268 CNS): 52.4 µM; TGI (SF-295 CNS): 50.9 µM; TGI (SF-539 CNS): 37.1 µM; TGI (SK-MEL-2 melanoma): 28.1 µM; TGI (SK-MEL-28 melanoma): > 54.7 µM; TGI (SK-MEL-5 melanoma): 31.1 µM; TGI (SK-OV-3 ovarian): > 100 µM; TGI (SN12C renal): 23.7 µM; TGI (SNB-19 CNS): > 100 µM; TGI (SNB-75 CNS): 45.8 µM; TGI (SNB-78 CNS): > 72.8 µM; TGI (SW-620 colon): 42.6 µM; TGI (TK-10 renal): > 63 µM; TGI (U251 CNS): > 74.4 µM; TGI (UACC-257 melanoma): > 46.9 µM; TGI (UACC-62 melanoma): 33.2 µM; TGI (UO-31 renal): > 63.5 µM; TGI (XF 498 CNS): > 54.9 µM

Q: For `COc1ccc(/C=N/Nc2nc(-c3cc4oc(=O)n(C)c4cc3Cl)cs2)cc1OC`, which TGI (786-0 renal) is on record?
A: > 100 µM

Q: What about the TGI (A549 NSCLC) of the same molecule?
A: 36.2 µM

Q: What about the TGI (ACHN renal) of the same molecule?
A: 62.3 µM

Q: What about the TGI (CAKI-1 renal) of the same molecule?
A: > 100 µM

Q: And the TGI (CCRF-CEM leukemia)?
A: > 100 µM

Q: And the TGI (COLO 205 colon)?
A: > 100 µM

Q: And the TGI (DLD-1 colon)?
A: > 100 µM

Q: What about the TGI (DMS 114 small cell lung) of the same molecule?
A: 39 µM

Q: And the TGI (DMS 273 small cell lung)?
A: > 100 µM

Q: What about the TGI (EKVX NSCLC) of the same molecule?
A: > 100 µM

Q: What about the TGI (HCC-2998 colon) of the same molecule?
A: > 100 µM

Q: What about the TGI (HCT-116 colon) of the same molecule?
A: > 100 µM

Q: And the TGI (HCT-15 colon)?
A: 91.8 µM

Q: What about the TGI (HL-60(TB) leukemia) of the same molecule?
A: > 100 µM

Q: And the TGI (HOP-18 NSCLC)?
A: > 100 µM

Q: And the TGI (HOP-62 NSCLC)?
A: > 100 µM

Q: And the TGI (HOP-92 NSCLC)?
A: 77.1 µM

Q: And the TGI (HT29 colon)?
A: > 100 µM

Q: And the TGI (IGROV1 ovarian)?
A: 51 µM

Q: And the TGI (K-562 leukemia)?
A: > 100 µM

Q: What about the TGI (KM12 colon) of the same molecule?
A: > 100 µM

Q: And the TGI (KM20L2 colon)?
A: > 100 µM

Q: And the TGI (LOX IMVI melanoma)?
A: > 100 µM

Q: What about the TGI (LXFL 529 NSCLC) of the same molecule?
A: > 100 µM

Q: And the TGI (M14 melanoma)?
A: > 100 µM

Q: What about the TGI (M19-MEL melanoma) of the same molecule?
A: > 100 µM

Q: And the TGI (MALME-3M melanoma)?
A: > 100 µM

Q: And the TGI (MOLT-4 leukemia)?
A: > 100 µM

Q: What about the TGI (NCI-H23 lung) of the same molecule?
A: > 100 µM

Q: What about the TGI (NCI-H460 lung) of the same molecule?
A: > 100 µM

Q: What about the TGI (OVCAR-3 ovarian) of the same molecule?
A: > 100 µM

Q: And the TGI (OVCAR-4 ovarian)?
A: 31.9 µM

Q: And the TGI (OVCAR-5 ovarian)?
A: > 100 µM

Q: What about the TGI (OVCAR-8 ovarian) of the same molecule?
A: > 100 µM

Q: What about the TGI (RPMI-8226 leukemia) of the same molecule?
A: > 100 µM

Q: What about the TGI (RXF 393 renal) of the same molecule?
A: 62.6 µM

Q: And the TGI (RXF-631 renal)?
A: > 100 µM

Q: What about the TGI (SF-268 CNS) of the same molecule?
A: > 100 µM

Q: What about the TGI (SF-295 CNS) of the same molecule?
A: > 100 µM

Q: And the TGI (SF-539 CNS)?
A: > 100 µM

Q: What about the TGI (SK-MEL-2 melanoma) of the same molecule?
A: > 100 µM

Q: What about the TGI (SK-MEL-28 melanoma) of the same molecule?
A: > 100 µM

Q: And the TGI (SK-MEL-5 melanoma)?
A: 14.7 µM

Q: And the TGI (SK-OV-3 ovarian)?
A: > 100 µM

Q: And the TGI (SN12C renal)?
A: 88.5 µM

Q: And the TGI (SNB-19 CNS)?
A: > 100 µM

Q: And the TGI (SNB-75 CNS)?
A: 69.5 µM

Q: And the TGI (SNB-78 CNS)?
A: > 100 µM

Q: What about the TGI (SR leukemia) of the same molecule?
A: > 100 µM

Q: And the TGI (SW-620 colon)?
A: > 100 µM

Q: And the TGI (TK-10 renal)?
A: > 100 µM

Q: What about the TGI (U251 CNS) of the same molecule?
A: > 100 µM

Q: And the TGI (UACC-257 melanoma)?
A: > 100 µM

Q: What about the TGI (UACC-62 melanoma) of the same molecule?
A: > 100 µM

Q: And the TGI (UO-31 renal)?
A: > 100 µM

Q: What about the TGI (XF 498 CNS) of the same molecule?
A: 88.5 µM
